The record followed here is patent US9815839B2, “N-(1-(substituted-phenyl)ethyl)-9H-purin-6-amines as PI3K inhibitors” (Incyte Corporation, priority 2010, dated 2017).

Counter-ions that a name gives are not always drawn. Bounds are passed on as bounds.

Assay [1] concerns the target T1, PI3Kδ (p110δ/p85α) (Homo sapiens, UniProt O00329).
T1 construct: purchased Millipore (Bedford, Mass.)
The assay can be described thus: PI3Kδ scintillation proximity assay. Particulars: 20 μM ATP, 4 nM PI3Kδ. It counts as biochemical. In outline: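 Radiometric SPA: product captured on WGA beads after EDTA quench and counted, IC50 fitted against log inhibitor concentration. Reactions ran 210 min at room temperature with 4 nM PI3Kδ (p110δ/p85α), 20 μM each PIP2 and ATP plus 33P-ATP, pH 6.7 MOPS buffer, 0.5% DMSO final.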
(In general: SPA uses beads or plates that emit light when radiolabelled molecules are held near them.)

Assay [2] deals with Pfeiffer cell line (diffuse large B cell lymphoma). The assay can be described thus: Pfeiffer cell proliferation assay. It counts as cell-based. Particulars: Homo sapiens, Pfeiffer, Pfeiffer cells, 3-4 days plus 12 hours [3H]-thymidine incorporation. In outline: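 Pfeiffer DLBCL cells grown in RPMI/10% FBS at 2×10^3 cells/well in ultra-low-binding plates with a range of compound concentrations for 3-4 days. [3H]-thymidine (1 μCi/well) was then added for 12 h more. Incorporation was read by filtration and scintillation counting.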
(Dividing cells build labelled thymidine or BrdU into new DNA.)

T1 sequence (O00329 whole entry, species assumed): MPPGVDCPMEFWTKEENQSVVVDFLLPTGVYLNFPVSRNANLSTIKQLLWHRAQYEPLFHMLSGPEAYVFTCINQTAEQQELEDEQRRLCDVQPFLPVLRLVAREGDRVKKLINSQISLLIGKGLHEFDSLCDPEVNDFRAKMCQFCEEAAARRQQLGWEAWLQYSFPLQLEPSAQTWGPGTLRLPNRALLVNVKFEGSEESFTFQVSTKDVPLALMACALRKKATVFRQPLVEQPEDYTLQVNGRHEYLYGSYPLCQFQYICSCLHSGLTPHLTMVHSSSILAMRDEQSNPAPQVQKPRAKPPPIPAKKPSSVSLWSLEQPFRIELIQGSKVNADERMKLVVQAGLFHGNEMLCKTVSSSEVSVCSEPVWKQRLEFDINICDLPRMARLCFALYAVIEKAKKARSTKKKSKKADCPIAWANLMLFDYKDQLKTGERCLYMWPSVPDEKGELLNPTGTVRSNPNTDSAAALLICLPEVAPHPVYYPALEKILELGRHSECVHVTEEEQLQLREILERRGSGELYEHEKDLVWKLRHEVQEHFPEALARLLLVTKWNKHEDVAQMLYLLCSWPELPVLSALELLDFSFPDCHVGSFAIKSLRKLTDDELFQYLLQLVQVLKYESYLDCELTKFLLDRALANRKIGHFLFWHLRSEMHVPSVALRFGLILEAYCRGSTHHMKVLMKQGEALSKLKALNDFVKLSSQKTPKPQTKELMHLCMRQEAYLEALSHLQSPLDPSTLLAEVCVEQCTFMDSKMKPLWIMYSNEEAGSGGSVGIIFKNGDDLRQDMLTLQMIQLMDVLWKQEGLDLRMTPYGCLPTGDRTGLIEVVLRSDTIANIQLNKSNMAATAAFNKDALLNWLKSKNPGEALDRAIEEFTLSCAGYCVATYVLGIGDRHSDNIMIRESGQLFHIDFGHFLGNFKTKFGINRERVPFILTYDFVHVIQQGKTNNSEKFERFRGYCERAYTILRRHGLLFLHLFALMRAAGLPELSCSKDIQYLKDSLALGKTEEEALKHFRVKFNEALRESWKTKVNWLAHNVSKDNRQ
T1 sequence (P27986 whole entry partner, species assumed): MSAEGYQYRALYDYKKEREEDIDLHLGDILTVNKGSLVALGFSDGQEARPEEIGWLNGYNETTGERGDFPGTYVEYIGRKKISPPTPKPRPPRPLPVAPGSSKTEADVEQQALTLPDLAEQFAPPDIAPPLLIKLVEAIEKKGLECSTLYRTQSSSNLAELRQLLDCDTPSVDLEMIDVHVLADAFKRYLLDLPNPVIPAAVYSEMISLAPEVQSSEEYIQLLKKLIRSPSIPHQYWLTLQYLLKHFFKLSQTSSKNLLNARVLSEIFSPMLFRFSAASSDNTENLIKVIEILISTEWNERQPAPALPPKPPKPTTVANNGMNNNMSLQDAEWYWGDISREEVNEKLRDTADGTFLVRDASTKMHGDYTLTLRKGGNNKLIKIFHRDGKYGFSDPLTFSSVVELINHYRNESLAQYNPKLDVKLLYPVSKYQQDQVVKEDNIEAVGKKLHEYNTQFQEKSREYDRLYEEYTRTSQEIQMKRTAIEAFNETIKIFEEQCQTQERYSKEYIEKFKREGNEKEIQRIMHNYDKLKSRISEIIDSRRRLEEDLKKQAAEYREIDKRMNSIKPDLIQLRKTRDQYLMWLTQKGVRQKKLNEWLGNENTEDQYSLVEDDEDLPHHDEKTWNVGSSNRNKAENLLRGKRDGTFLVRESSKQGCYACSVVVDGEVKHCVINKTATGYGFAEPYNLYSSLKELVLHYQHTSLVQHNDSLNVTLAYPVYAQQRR

For orientation: IC50 means the point on the concentration scale where inhibition reaches its midpoint. For the compound `Cc1noc(C)c1-c1c(C)c(Cl)cc(C(C)Nc2ncnc3[nH]cnc23)c1-c1cccc(F)c1` (centres unmarked) [Example 71, N-{1-[4-chloro-6-(3,5-dimethylisoxazol-4-yl)-3′-fluoro-5-methylbiphenyl-2-yl]ethyl}-9H-purin-6-amine trifluoroacetate], the IC50 is below 50 nM in assay [1] and below 100 nM in assay [2].

On to `Cc1c(Cl)cc(C(C)Nc2ncnc3[nH]cnc23)c(-c2cccc(F)c2)c1-c1cn[nH]c1` (centres unmarked) [Example 72, N-{1-[4-Chloro-3′-fluoro-5-methyl-6-(1H-pyrazol-4-yl)biphenyl-2-yl]ethyl}-9H-purin-6-amine trifluoroacetate], for which the IC50 is below 50 nM in assay [1] and below 100 nM in assay [2].

Consider `Cc1c(Cl)cc(C(C)Nc2ncnc3[nH]cnc23)c(-c2cccc(F)c2)c1-c1ccnn1C` (centres unmarked) [Example 74, N-{1-[4-chloro-3′-fluoro-5-methyl-6-(1-methyl-1H-pyrazol-5-yl)biphenyl-2-yl]ethyl}-9H-purin-6-amine], for which the values for the IC50 in assay [1] and in assay [2] were below 50 nM and below 100 nM, respectively.

`Cc1nn(C)c(C)c1-c1c(C)c(Cl)cc(C(C)Nc2ncnc3[nH]cnc23)c1-c1cccc(F)c1` (centres unmarked) [Example 75, N-{1-[4-chloro-3′-fluoro-5-methyl-6-(1,3,5-trimethyl-1H-pyrazol-4-yl)biphenyl-2-yl]ethyl}-9H-purin-6-amine]: the IC50 is below 50 nM in assay [1] and below 100 nM in assay [2].

For `Cc1c(Cl)cc(C(C)Nc2ncnc3[nH]cnc23)c(-c2cc(F)cc(F)c2)c1-c1ccncc1` (centres unmarked) [Example 76, N-[1-(4-Chloro-3′,5′-difluoro-5-methyl-6-pyridin-4-ylbiphenyl-2-yl)ethyl]-9H-purin-6-amine bis(trifluoroacetate)], the figures for the IC50 in assay [1] and in assay [2] were below 50 nM and below 100 nM, respectively.

For the compound `Cc1noc(C)c1-c1c(C)c(Cl)cc(C(C)Nc2ncnc3[nH]cnc23)c1-c1cc(F)cc(F)c1` (centres unmarked) [Example 77, N-{1-[4-chloro-6-(3,5-dimethylisoxazol-4-yl)-3′,5′-difluoro-5-methylbiphenyl-2-yl]ethyl}-9H-purin-6-amine], the values for the IC50 in assay [1] and in assay [2] were below 50 nM and below 100 nM, respectively.

Turning to `Cc1c(Cl)cc(C(C)Nc2ncnc3[nH]cnc23)c(-c2cc(F)cc(F)c2)c1-c1cccnc1` (centres unmarked) [Example 78, N-[1-(4-chloro-3′,5′-difluoro-5-methyl-6-pyridin-3-ylbiphenyl-2-yl)ethyl]-9H-purin-6-amine], the IC50 was below 50 nM in assay [1] and below 100 nM in assay [2].

Consider `Cc1c(Cl)cc(C(C)Nc2ncnc3[nH]cnc23)c(-c2cc(F)cc(F)c2)c1-c1ccc(C#N)cc1` (centres unmarked) [Example 79, 5′-chloro-3″,5″-difluoro-6′-methyl-3′-[1-(9H-purin-6-ylamino)ethyl]-1,1′:2′,1″-terphenyl-4-carbonitrile], for which the IC50 lay in the range of 100 to 250 nM in assay [1] and 100 to 500 nM in assay [2].

Consider `Cc1c(Cl)cc(C(C)Nc2ncnc3[nH]cnc23)c(-c2cc(F)cc(F)c2)c1-c1cc(F)nc(F)c1` (centres unmarked) [Example 80, N-{1-[4-chloro-6-(2,6-difluoropyridin-4-yl)-3′,5′-difluoro-5-methylbiphenyl-2-yl]ethyl}-9H-purin-6-amine], for which the IC50 was below 50 nM in assay [1] and below 100 nM in assay [2].

Turning to `Cc1c(Cl)cc(C(C)Nc2ncnc3[nH]cnc23)c(-c2cc(F)cc(F)c2)c1-c1cncnc1` (centres unmarked) [Example 81, N-[1-(4-chloro-3′,5′-difluoro-5-methyl-6-pyrimidin-5-ylbiphenyl-2-yl)ethyl]-9H-purin-6-amine], the IC50 in assay [1] is below 50 nM; in assay [2] it was below 100 nM.

Take `COc1ncc(-c2c(C)c(Cl)cc(C(C)Nc3ncnc4[nH]cnc34)c2-c2cc(F)cc(F)c2)cn1` (centres unmarked) [Example 82, N-{1-[4-chloro-3′,5′-difluoro-6-(2-methoxypyrimidin-5-yl)-5-methylbiphenyl-2-yl]ethyl}-9H-purin-6-amine]: the values for the IC50 in assay [1] and in assay [2] were below 50 nM and below 100 nM, respectively.

On to `CC(=O)Nc1ccc(-c2c(C)c(Cl)cc(C(C)Nc3ncnc4[nH]cnc34)c2-c2cc(F)cc(F)c2)cc1` (centres unmarked) [Example 83, N-{5′-chloro-3″,5″-difluoro-6′-methyl-3′-[1-(9H-purin-6-ylamino)ethyl]-1,1′:2′,1″-terphenyl-4-yl}acetamide], for which the values for the IC50 in assay [1] and in assay [2] were below 50 nM and below 100 nM, respectively.

Regarding `COc1c(C(C)Nc2ncnc3[nH]cnc23)cc(Cl)c(C)c1-c1ccnc(F)c1` (centres unmarked) [Example 84, N-{1-[5-chloro-3-(2-fluoropyridin-4-yl)-2-methoxy-4-methylphenyl]ethyl}-9H-purin-6-amine], the figures for the IC50 in assay [1] and in assay [2] were below 50 nM and below 100 nM, respectively.

With `COc1c(C(C)Nc2ncnc3[nH]cnc23)cc(Cl)c(C)c1-c1cnc(F)c(C)c1` (centres unmarked) [Example 87, N-{1-[5-chloro-3-(6-fluoro-5-methylpyridin-3-yl)-2-methoxy-4-methylphenyl]ethyl}-9H-purin-6-amine], the IC50 in assay [1] was below 50 nM; in assay [2] it was below 100 nM.

On to `COc1c(C(C)Nc2ncnc3[nH]cnc23)cc(Cl)c(C)c1-c1ccc(N2CCOCC2)cc1` (centres unmarked) [Example 88, N-[1-(5-chloro-2-methoxy-6-methyl-4′-morpholin-4-ylbiphenyl-3-yl)ethyl]-9H-purin-6-amine], for which the results for the IC50 in assay [1] and in assay [2] were below 50 nM and below 100 nM, respectively.

Regarding `COc1c(C(C)Nc2ncnc3[nH]cnc23)cc(Cl)c(C)c1-c1ccc(F)c(Cl)c1` (centres unmarked) [Example 89, N-[1-(3′,5-dichloro-4′-fluoro-2-methoxy-6-methylbiphenyl-3-yl)ethyl]-9H-purin-6-amine], the values for the IC50 in assay [1] and in assay [2] were 50 to 100 nM and 500 to 1000 nM, respectively.

As for `CCOc1cccc(-c2c(C)c(Cl)cc(C(C)Nc3ncnc4[nH]cnc34)c2OC)c1` (centres unmarked) [Example 91, N-[1-(5-chloro-3′-ethoxy-2-methoxy-6-methylbiphenyl-3-yl)ethyl]-9H-purin-6-amine], the values for the IC50 in assay [1] and in assay [2] were 50 to 100 nM and above 1000 nM, respectively.

Consider `COc1c(C(C)Nc2ncnc3[nH]cnc23)cc(Cl)c(C)c1-c1ccc(Cl)c(F)c1` (centres unmarked) [Example 92, N-{1-(4′,5-dichloro-3'-fluoro-2-methoxy-6-methylbiphenyl-3-yl)ethyl]-9H-purin-6-amine], for which the IC50 was 100 to 250 nM in assay [1] and 100 to 500 nM in assay [2].

Consider `COc1c(C(C)Nc2ncnc3[nH]cnc23)cc(Cl)c(C)c1-c1ccc(F)c(C(F)(F)F)c1` (centres unmarked) [Example 93, N-{1-[5-chloro-4′-fluoro-2-methoxy-6-methyl-3′-(trifluoromethyl)biphenyl-3-yl]ethyl}-9H-purin-6-amine], for which the values for the IC50 in assay [1] and in assay [2] were 50 to 100 nM and above 1000 nM, respectively.

As to `COc1c(C(C)Nc2ncnc3[nH]cnc23)cc(Cl)c(C)c1-c1ccc(F)c(C(=O)N(C)C)c1` (centres unmarked) [Example 94, 3′-chloro-4-fluoro-6′-methoxy-N,N,2′-trimethyl-5′-[1-(9H-purin-6-ylamino)ethyl]biphenyl-3-carboxamide], the IC50 was below 50 nM in assay [1] and below 100 nM in assay [2].

On to `COc1cc(-c2c(C)c(Cl)cc(C(C)Nc3ncnc4[nH]cnc34)c2OC)ccc1F` (centres unmarked) [Example 95, N-[1-(5-chloro-4′-fluoro-2,3′-dimethoxy-6-methylbiphenyl-3-yl)ethyl]-9H-purin-6-amine], for which the values for the IC50 in assay [1] and in assay [2] were below 50 nM and 500 to 1000 nM, respectively.

Consider `COc1ccc(-c2c(C)c(Cl)cc(C(C)Nc3ncnc4[nH]cnc34)c2OC)cc1OC` (centres unmarked) [Example 96, N-[1-(5-chloro-2,3′,4′-trimethoxy-6-methylbiphenyl-3-yl)ethyl]-9H-purin-6-amine], for which the IC50 in assay [1] is below 50 nM; in assay [2], below 100 nM.

Regarding `COc1ccc(-c2c(C)c(Cl)cc(C(C)Nc3ncnc4[nH]cnc34)c2OC)cc1Cl` (centres unmarked) [Example 97, N-[1-(3′,5-dichloro-2,4′-dimethoxy-6-methylbiphenyl-3-yl)ethyl]-9H-purin-6-amine], the IC50 was in the range of 50 to 100 nM in assay [1] and 100 to 500 nM in assay [2].

In the case of `COc1c(C(C)Nc2ncnc3[nH]cnc23)cc(Cl)c(C)c1-c1ccnc(Cl)c1` (centres unmarked) [Example 98, N-{1-[5-chloro-3-(2-chloropyridin-4-yl)-2-methoxy-4-methylphenyl]ethyl}-9H-purin-6-amine], the IC50 is below 50 nM in assay [1] and below 100 nM in assay [2].

As to `COc1c(C(C)Nc2ncnc3[nH]cnc23)cc(Cl)c(C)c1-c1cccc(N(C)C)c1` (centres unmarked) [Example 100, N-{1-[5-chloro-3′-(dimethylamino)-2-methoxy-6-methylbiphenyl-3-yl]ethyl}-9H-purin-6-amine], the IC50 in assay [1] was below 50 nM; in assay [2] it was above 1000 nM.

In the case of `Cc1c(Cl)cc(C(C)Nc2ncnc3[nH]cnc23)c(-c2cc(F)cc(F)c2)c1-c1cn[nH]c1` (centres unmarked) [Example 106, N-{1-[4-Chloro-3′,5′-difluoro-5-methyl-6-(1H-pyrazol-4-yl)biphenyl-2-yl]ethyl}-9H-purin-6-amine], the IC50 was below 50 nM in assay [1] and below 100 nM in assay [2].

`Cc1n[nH]c(C)c1-c1c(C)c(Cl)cc(C(C)Nc2ncnc3[nH]cnc23)c1-c1cc(F)cc(F)c1` (centres unmarked) [Example 107, N-{1-[4-chloro-6-(3,5-dimethyl-1H-pyrazol-4-yl)-3′,5′-difluoro-5-methylbiphenyl-2-yl]ethyl}-9H-purin-6-amine]: the figures for the IC50 in assay [1] and in assay [2] were below 50 nM and 100 to 500 nM, respectively.

For the compound `COc1ncc(-c2c(C)c(Cl)cc(C(C)Nc3ncnc4[nH]cnc34)c2OC)cc1F` (centres unmarked) [Example 109, N-{1-[5-chloro-3-(5-fluoro-6-methoxypyridin-3-yl)-2-methoxy-4-methylphenyl]ethyl]-9H-purin-6-amine], the IC50 in assay [1] was below 50 nM; in assay [2] it was below 100 nM.
